Experimental data from patent publication US10238631B2, “Sesquiterpene derivatives and their use in inflammation or cancer treatment” (Academia Sinica, priority 2014, dated 2019).

Key:
[1] = test system: A375-R acquired vemurafenib resistance melanoma cells; assay: MTT cell viability assay, PLX4032-resistant A375-R; format: cell-based, human; settings: Homo sapiens; 72 h, MTT
Procedure: A375-R, acquired vemurafenib resistance melanoma cell was generated from A375 parental cell and grown in same conditions as A375 cell.
Normal or cancer cells (2×10^3 to 1×10^4 cells/well) were seeded in 96-well plate for overnight and treated with different compounds for 24 h to 72 h. Cells growth were determined by MTT-based colorimetric assays according to. Viability of the test cells treated with vehicle (0.5% DMSO) only was defined as 100% viable. Survival of cells after treatment with DETDs was calculated using the following formula: viable cell number (%)=OD570 (treated cell culture)/OD570 (vehicle control)×100.
To study the mechanisms underlying how DETD-35 overcomes acquired resistance to BRAF inhibitor, we generated A375 cell line resistant to PLX4032 (designated A375-R). Briefly, A375 melanoma cells were seeded in T75 plate and treated with ascending concentration of PLX4032 (20, 50, 100, 250, 500, 1000, 2000 nM) through approximately 2 months and 20 passages.

MDA-MB-231 mammary tumor = assay: Orthotopic MDA-MB-231 mammary tumor growth in NOD/SCID mice; format: in vivo, mouse
Procedure: Mammary tumor response to DET analog (DETD-35) was studied using MDA-MB-231 cancer cell bearing NOD/SCID mice (6 weeks old). The mammary fat pad regions of mice were injected with 5×10^6 MDA-MB-231 cells in 100 μL (9.1 mg/mL) matrigel (Basement Membrane Matrix. Phenol Red-free) on day 0. Tumors were allowed to grow in the mice for 7 days, and then the animals were randomly assigned to three groups (n=5 per group): sham, tumor (vehicle) control and 10 mg/kg DETD-35 treatment group. DETD-35 was intraperitoneally […] injected every three days. The test mice were sacrificed by cervical dislocation at day 71, and the tumor were collected and measured for the volume (V) using calipers and calculated by the formula V=(L×W^2)/2, where L is the length and W is the width of tumor.

[2] = test system: phospho-MEK and phospho-ERK in A375-R cells; assay: Western blot of MAPK signaling, A375-R; format: cell-based, human
Procedure: Total cellular proteins were prepared from test cells as previously described. Protein concentration was determined by the Bradford method (Bio-Rad). Protein samples were resolved by 5% to 20% gradient SDS-PAGE and then underwent immunoblotting. Primary antibodies against ERK1/2 and GAPDH were from Santa Cruz Biotechnology (Santa Cruz, Calif., USA) and MEK, phospho-ERK1/2 and phospho-MEK were from Cell Signaling Technology (Danvers, Mass., USA). Appropriate horseradish peroxidase-conjugated secondary antibodies were used. Protein bands reacting to specific antibody were visualized by use of enhanced chemiluminescence (Amersham) with exposure to chemiluminescence light film (BioMax; Kodak Co.).

A375 melanoma cells = assay: Compound-drug combination assay with PLX4032; format: cell-based, human; settings: DETD-35 0.1 to 1 μM, PLX4032 10 to 100 nM, 72 h
Procedure: (§1) Cell proliferation was measured by MTT assay. Isobologram analysis and Chou-Talalay method was used to determine the effects of compound drug combinations. The interaction of DETDs and PLX4032 or PTX was determined by the combination index (CI), and the CI plot was generated using CompuSyn software. The combined effects of two compounds can be categorized as follows: CI=1 indicates additive interaction, CI<1 indicates synergism, and CI>1 indicates antagonism.
To investigate whether or not DETD-35 show synergism with PLX4032 against A375 melanoma cells, we performed anti-proliferation assay using MTT reagent to obtain IC50 of each compound. […] The synergistic effect was quantified by combination index (CI) analysis as stated above.

MDA-MB-231 cells = assay: Compound-drug combination assay with PTX; format: cell-based, human; settings: 0-4 μM compound, 0-25 nM PTX
Procedure: as §1
To investigate whether or not DETD-35 and DETD-39 act synergistically with PTX against MDA-MB-231 cell activity, anti-proliferation assay using MTT reagent was performed to obtain the IC60 value of each compound. […] Based on the IC60 values, DETD-35 or DETD-39 ranging from 0 to 4 μM and PIX from 0 to 25 nM were used for compound-drug combination study. Classic isobologram analysis and Chou-Talalay method were conducted to investigate the synergistic effect of compound and drug. Combination index (CI) was calculated with CalcuSyn software (Version 2.0, Biosoft) and expressed as CI vs. Fa (fraction affected). CI<1 indicates synergy; CI=1 indicates additive effect; and CI>1 indicates antagonism.

[3] = test system: MDA-MB-231 lung metastasis; assay: Lung metastasis of MDA-MB-231 cells in SCID mice; format: in vivo, mouse
Procedure: Female SCID mice (5 weeks old, average body weight 19.59±1.26 g) were assigned to 8 groups: PIX group (5 mg/kg paclitaxel), DETD-35-2 group (2 mg/kg DETD-35), DETD-35-10 group (10 mg/kg DETD-35). PTX-5+DETD-35-2 group (5 mg/kg paclitaxel and 2 mg/kg DETD-35 administration alternatively for eleven doses of paclitaxel (PTX) and ten doses of DETD-35 in total), tumor (vehicle) group (5% DMSO), and sham group (5% DMSO). Pre-DETD-35-10 group was the mice administered 10 mg/kg DETD-35 every two days for three doses before the i.v. injection of 1×10^6 MDA-MB-231 tumor cells at day 0. All other drug or compounds were administered i.p. every three days starting from day 1. At the end of experiment (day 71), the test mice were sacrificed by cervical dislocation. The lung, liver, kidney, and spleen organs were removed and recorded weights and calculated for organ index (% of organ weight/body weight). The number of tumor colonies on lungs of test mice was counted.

C=C1C(=O)O[C@H]2CC3=C[C@@H](C/C(C)=C/[C@@H](OC(=O)Cc4cccc5ccccc45)[C@H]12)OC3=O [DETD-35]
IC50 [1]: 0.8 µM | effect on mouse body weight (MDA-MB-231 mammary tumor; 10 mg/kg i.p.): without affecting the mouse body weight | fold decrease of tumor volume at day-71 vs tumor control (MDA-MB-231 mammary tumor; 10 mg/kg i.p.): 1.8 folds | tumor growth vs control group (MDA-MB-231 mammary tumor; 10 mg/kg i.p. every three days, day-56): significantly delayed | tumor volume at day-71 (MDA-MB-231 mammary tumor; 10 mg/kg i.p. every three days, tumor control 1268): 712 mm^3 | effect on MAP kinases (phospho-MEK, phospho-ERK), A375-R [2]: inhibited reactivation of MAP kinases | combination effect with PLX4032 (combination index) (A375 melanoma cells): acted synergistically | combination effect with PTX (isobologram, combination index) (MDA-MB-231 cells): acted synergistically | body weight ([3]; 2 mg/kg group): slightly lower than other groups with no statistical difference | reduction of number of tumor foci in lungs vs tumor control ([3]; post-treatment, 2 mg/kg i.p. every three days, not statistically significant): 9% | reduction of number of tumor foci in lungs vs tumor control ([3]; post-treatment, 10 mg/kg i.p. every three days): 50% | reduction of number of tumor foci in lungs vs tumor control ([3]; pretreatment, 10 mg/kg every two days, three doses before tumor cell injection): 83%
